From patent publication US20100160226A1, “Y-RECEPTOR AGONISTS” (7TM PHARMA A/S, priority 2007, published 2010)

Molecular target: T1, human Y1 receptor (Homo sapiens, UniProt P25929)
T1 construct: expressed in transfected cells; host or cells: COS-7
T1 sequence (P25929 1-384): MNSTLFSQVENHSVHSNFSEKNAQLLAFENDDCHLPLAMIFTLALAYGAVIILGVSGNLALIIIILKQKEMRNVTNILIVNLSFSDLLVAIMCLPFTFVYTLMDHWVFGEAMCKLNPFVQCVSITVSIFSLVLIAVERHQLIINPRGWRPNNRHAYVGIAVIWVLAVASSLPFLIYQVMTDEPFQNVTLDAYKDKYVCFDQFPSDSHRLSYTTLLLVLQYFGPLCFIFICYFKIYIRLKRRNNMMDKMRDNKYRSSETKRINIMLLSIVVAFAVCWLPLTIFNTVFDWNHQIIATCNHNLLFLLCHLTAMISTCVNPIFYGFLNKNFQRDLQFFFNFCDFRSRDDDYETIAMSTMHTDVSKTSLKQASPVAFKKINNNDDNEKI
Assay: Human Y1 receptor potency assay (inositol phosphate turnover)
Format: cell-based
Conditions: COS-7 cells transfected with human Y1 receptor and Gqi5, read-out: hY1 EC50
Procedure: Potency of the test compounds on the human Y2 receptor is determined by performing dose-response experiments in COS-7 cells transiently transfected with the human Y2 receptor as well as a promiscuous G protein, Gqi5 which ensures that the Y2 receptor couples through a Gq pathway leading to an increase in inositol phosphate turnover.
Cells are washed twice in buffer, 20 mM HEPES, pH 7.4, supplemented with 140 mM NaCl, 5 mM KCl, 1 mM MgSO4, 1 mM CaCl2, 10 mM glucose, 0.05% (w/v) bovine serum; and are incubated in 0.5 ml buffer supplemented with 10 mM LiCl at 37 C for 30 min. After stimulation with various concentrations of peptide for 45 min at 37 C, cells are extracted with 10% ice-cold perchloric acid followed by incubation on ice for 30 min. The resulting supernatants are neutralized with KOH in HEPES buffer, and the generated [3H]-inositol phosphate are purified on Bio-Rad AG 1-X8 anion-exchange resin and counted in a beta counter. Determinations are made in duplicates. EC50 values were calculated using a standard pharmacological data handling software, Prism 3.0 (graphPad Sofware, San Diego, USA).
Protocol as for the Y2 potency assay, except that human Y1-transformed COS-7 cells are used.

Molecule | EC50 [nM]
H-APLEPVYPGDNATPEQMAQYAADLRRYINTITRQRY-NH2 [[Thr30, Ile31, Gln34]hPP] | > 1000
H-PLEPVYPGDNATPEQMAQYAADLRRYINTLTRQRY-NH2 [[Thr30, Gln34]hPP2-36] | > 1000
H-APLEPVYPGDNATPEQMAQYAADLRRYINTLTRQRY-NH2 [[Thr30, Gln34]hPP] | > 1000
H-LEPVYPGDNATPEQMAQYAADLRRYINMLTRQRY-NH2 [[Gln34]hPP3-36, reference compound] | > 1000
H-PLEPVYPGDNATPEQMAQYAADLRRYINTITRQRY-NH2 [[Thr30, Ile31, Gln34]hPP2-36] | > 1000

Tested on: not listed separately
Assay: in vivo
Parameters: species or system cyno monkeys
Conditions: cynomolgus monkey
Excerpt: PYY itself is know to be extremely emetic when administered peripherally, in fact PYY was discovered-for “the second time” -in 1989 as the biologically active entity in a chromatographic fraction of an intestinal extract causing dogs to vomit (Harding and McDonald 1989 Peptides 10: 21-24). […] It has also been reported that PYY3-36 can cause nausea when administered peripherally to human subjects ([…] press release 29th of June 2004). From a physiological point of view it appears logically that PYY-and its biologically active conversion product-which normally first is secreted in large amounts during a very large meal or when food is dumped into the lower intestine due to various surgical procedures, is able to cause emesis and vomiting to relieve the subject from a situation of overt overeating. […] This is surprising since [[…]]PP has a relatively high potency on the Y2 receptor for which PYY3-36 is totally selective. […] Apparently, the Y4 receptor activation-conceivably in the area postreama-prevents the emetic effect of the Y2 activation form the same compound. This property of a combined Y2-Y4 selective agonist is of great benefit for the treatment of obesity and associated conditions.

Molecule | level at time molar [nM]
CC[C@H](C)[C@H](NC(=O)[C@H](Cc1ccc(O)cc1)NC(=O)[C@H](CCCNC(=N)N)NC(=O)[C@H](CCCNC(=N)N)NC(=O)[C@H](CC(C)C)NC(=O)[C@H](CC(=O)O)NC(=O)[C@H](C)NC(=O)[C@H](C)NC(=O)[C@H](Cc1ccc(O)cc1)NC(=O)[C@H](CCC(N)=O)NC(=O)[C@H](C)NC(=O)[C@H](CCSC)NC(=O)[C@H](CCC(N)=O)NC(=O)[C@H](CCC(=O)O)NC(=O)[C@@H]1CCCN1C(=O)[C@@H](NC(=O)[C@H](C)NC(=O)[C@H](CC(N)=O)NC(=O)[C@H](CC(=O)O)NC(=O)CNC(=O)[C@@H]1CCCN1C(=O)[C@H](Cc1ccc(O)cc1)NC(=O)[C@@H](NC(=O)[C@@H]1CCCN1C(=O)[C@H](CCC(=O)O)NC(=O)[C@H](CC(C)C)NC(=O)[C@@H]1CCCN1C(=O)[C@H](C)N)C(C)C)[C@@H](C)O)C(=O)N[C@@H](CC(N)=O)C(=O)N[C@@H](CCSC)C(=O)N[C@@H](CC(C)C)C(=O)N[C@H](C(=O)N[C@@H](CCCNC(=N)N)C(=O)N[C@@H](CCC(N)=O)C(=O)N[C@@H](CCCNC(=N)N)C(=O)N[C@@H](Cc1ccc(O)cc1)C(N)=O)[C@@H](C)O [[Gln34]hPP] | 12 to 13
